Assay results: PMC5762859, “Distribution analysis of epertinib in brain metastasis of HER2-positive breast cancer by imaging mass spectrometry and prospect for antitumor activity” (Scientific Reports, 2018)
Where two headings read alike, the source gives them in different places.

How the values were obtained:
[1] = Plasma exposure after single oral administration in nude mice; type: in vivo; details: mouse, single oral 50 mg/kg, read-out: Plasma exposure (AUC0–24 h)
[2] = Quantitative MALDI-IMS of drug in brain metastases of the breast cancer IVM (BR2, BR3); type: in vivo, mice; details: for concentration at 4 h / concentration at 8 h: female, BALB/cAJcl-nu/nu, mouse, tumor (brain metastasis) in brain sections, po, 50 mg/kg, IMS; for concentration at 4 h: 4 h after single oral 50 mg/kg; for concentration at 8 h: 8 h after single oral 50 mg/kg
Procedure: BTB integrity in the IVM was assessed by measuring the fluorescence intensity of Texas-Red® dextran in the metastatic regions or brain parenchyma. Metastatic regions were defined as cancer cell clusters with DAPI staining in the same brain section (Fig. 2E and Supplementary Fig. S2C).
(§1) All experimental protocols were approved by the Institutional Animal Care and Use Committee of Shionogi & Co., Ltd (Osaka, Japan) and performed in accordance with the Guidelines for Animal Experiments of Shionogi & Co., Ltd, which meet the ethical standards required by the law and the guidelines about the experimental animals in Japan. Nude mice (BALB/cAJcl-nu/nu, CLEA Japan) were used for in vivo studies. All mice were female and six to nine weeks old at the time of implantation. […] Plasma was separated by centrifugation at 3,000 rpm for 15 min at 4 °C and stored at −80 °C until analysis. After blood sampling, brain tissues were immediately excised, frozen on dry ice, and stored at −80 °C prior to sectioning.
(§2) In the experimental brain metastasis of breast cancer or lung cancer (IVM), a cell suspension containing 2.0 × 10^6 cells (BR2), 1.7 × 10^6 cells (BR3), or 4.0 × 10^5 cells (NCI-H1975-luc) was implanted into the left ventricle of anaesthetized mice (Supplementary Fig. S1). In the intracranial implantation mice model, the cell suspension containing 3.1 × 10^5 cells was implanted into the craniotomy region (2 mm to the left of the bregma and 1 mm anterior to the coronal suture). For measurement of bioluminescence, 0.2 mL of 10 mg/mL luciferin solution was injected intravenously into anesthetized mice via the tail vein and the photons emitted from tumor measured by IVIS Imaging System 200 (Caliper Life Sciences).
Frozen brain tissues were cut into 10-µm sections using a cryostat (Leica CM3050 S; Leica Microsystems Inc., Wetzlar, Germany) at −20 °C. Sections were thaw-mounted onto glass microscope slides (Superfrost; Thermo Fisher Scientific Inc.) and stored at −80 °C until use. […] Standard solutions were spotted onto the glass microscope slides at 1 µL.
Matrix-coated sections were analyzed using a linear ion trap mass spectrometer with a MALDI source (MALDI LTQ XL, Thermo Fisher Scientific Inc.) and a nitrogen laser (337 nm; 60 Hz). Laser energy and raster step size were set at 30 µJ and 100 µm, respectively. All compounds were detected in positive-ion mode using the product ion scans of their [M + H]^+ ions. […] Heme B was detected by MS3 (m/z 616 → 557 → 498) as a blood biomarker.
Spectral data were acquired using Xcalibur 2.0.7 software (Thermo Fisher Scientific Inc.) and the localization and concentration of all compounds in the brain sections were analyzed using Quantinetix 1.7.10 software (ImaBiotech, Loos, France). The fluorescence intensity of Texas-Red® dextran and immunostaining intensity of HER2 were analyzed using a BZ-X analyzer (Keyence). Statistical analyses were performed using SAS software (version 9.4).

[3] = design: method as in PMID 25434923; details: human, cited from earlier work
[4] = Quantitative MALDI-IMS of drug in brain metastases of the lung cancer IVM (NCI-H1975-luc); type: in vivo, mice; details: female, BALB/cAJcl-nu/nu, mouse, tumor (brain metastasis) in brain sections, 4 h after oral 100 mg/kg
Source text: as §1, with “After blood sampling, brain tissues were immediately excised, frozen on dry ice, and stored at −80 °C prior to sectioning.” left out
as §2, with “In the intracranial implantation mice model, the cell suspension containing 3.1 × 10^5 cells was implanted into the craniotomy region (2 mm to the left of the bregma and 1 mm anterior to the coronal suture).” left out, “Sciences). […]” for “Sciences).”
Matrix-coated sections were analyzed using a linear ion trap mass spectrometer with a MALDI source (MALDI LTQ XL, Thermo Fisher Scientific Inc.) and a nitrogen laser (337 nm; 60 Hz). […] All compounds were detected in positive-ion mode using the product ion scans of their [M + H]^+ ions. […]

[5] = system: EGFR; design: method as in PMID 24837299; details: between 6 and 24 h after a single administration; cited from earlier work
[6] = system: HER2; design: method as in PMID 24837299; details: between 6 and 24 h after a single administration; cited from earlier work
[7] = Plasma concentration by LC-MS/MS in the breast cancer IVM; type: in vivo, mice; details: female, BALB/cAJcl-nu/nu, mouse, po, 50 mg/kg; for concentration at 4 h: 4 h after single oral 50 mg/kg; for concentration at 8 h: 8 h after single oral 50 mg/kg
Source text: as §1
(§3) The mixture was stirred for 10 min and centrifuged at 5,000 rpm for 5 min at 10 °C, and 1 µL of the supernatant was injected into the LC-MS/MS system. An ultra-HPLC system (Nexera LC-20A, Shimadzu Corp., Kyoto, Japan) with a triple quadrupole mass spectrometer (API 5000^TM, AB Sciex, Forester City, CA, USA) was used for LC/MS/MS analysis. The LC-MS/MS system was controlled by Analyst 1.4.2 (AB Sciex) software. Chromatographic separation was performed using a Cadenza CD-C18 HT column (50 × 2.0 mm i.d., 3 µm; Imtakt Corp., Kyoto, Japan).

[8] = Plasma and brain pharmacokinetics after single oral administration in mice implanted intracranially with MDA-MB-361 cells; details: for concentration at 8 h / Tmax / concentration at 0.5 h / concentration at 1 h / concentration at 2 h / concentration at 4 h / concentration at 24 h / AUC(0-t) / Cmax: female, mouse, po; for AUC0–24 h, brain / Cmax, brain: single oral 20 mg/kg, mice
Source text: as §1, §3

[9] = Plasma concentration in the lung cancer IVM; type: in vivo, mice; details: female, BALB/cAJcl-nu/nu, mouse, 4 h after oral 100 mg/kg
Source text: as §1, §3

[10] = BALB/cAJcl-nu/nu nude, brain, 20 mg/kg
[11] = BALB/cAJcl-nu/nu, brain, 20 mg/kg
[12] = BALB/cAJcl-nu/nu, plasma, 20 mg/kg

Structure (SMILES) | AUC(0-t) [1] | concentration at 4 h ([2]; BR2 IVM) | concentration at 4 h ([2]; BR3 IVM) | concentration at 8 h ([2]; BR3 IVM) | concentration at 4 h [4] | Inhibitory activity on EGFR phosphorylation at 24 h [5] | Inhibitory activity on HER2 phosphorylation at 24 h [6] | concentration at 4 h ([7]; BR2 IVM) | concentration at 4 h ([7]; BR3 IVM) | concentration at 8 h ([7]; BR3 IVM) | concentration at 8 h [8, 10] | Tmax [8, 11] | concentration at 0.5 h [8, 11] | concentration at 1 h [8, 11] | concentration at 2 h [8, 11] | concentration at 4 h [8, 11] | concentration at 24 h [8, 11] | AUC(0-t) [8, 12] | Cmax [8, 12] | Tmax [8, 12] | also measured
CC#CC(=NOCC1COCCN1)c1ccc2ncnc(Nc3ccc(OCc4cccc(F)c4)c(Cl)c3)c2c1 (stereo not drawn) [Epertinib] | 9980 ng·h/mL | 2930 ng/g | 2700 ng/g | 2710 ng/g | 6700 ng/g | persisted at 24 h | persisted at 24 h | 1440 ± 50 ng/mL | 1300 ± 120 ng/mL | 920 ± 300 ng/mL | 23.8 ng/g | 4 h | 10.2 ng/g | 12.8 ng/g | 23 ng/g | 36.3 ng/g | 1.7 ng/g | 1260 ng·h/mL | 145 ng/mL | 2 h | Concentration measured in brain metastases of the IVM with breast cancer ([2]; breast cancer IVM): 5.2 µM; Tumor concentration of epertinib relative to that of lapatinib ([2]; breast cancer IVMs, 4 h after administration): > 10 times; Plasma exposure (AUC0–24 h) ([3]; effective dose 800 mg/day): 9170 ng·h/mL; Brain concentration of epertinib relative to that of lapatinib ([8]; 4 h after oral administration, 20 mg/kg): approximately twice; concentration at 0.5 h ([8]; BALB/cAJcl-nu/nu, in vivo, 20 mg/kg): 99.8 ng/mL; concentration at 1 h [8, 12]: 113 ng/mL; concentration at 2 h [8, 12]: 145 ng/mL; concentration at 4 h [8, 12]: 115 ng/mL; concentration at 8 h [8, 12]: 54.7 ng/mL; concentration at 24 h [8, 12]: 2.1 ng/mL; AUC0–24 h, brain [8]: 409 ng·h/g; Cmax, brain [8]: 36 ng/g; concentration at 4 h [9]: 2760 ± 660 ng/mL
CS(=O)(=O)CCNCc1ccc(-c2ccc3ncnc(Nc4ccc(OCc5cccc(F)c5)c(Cl)c4)c3c2)o1 [Lapatinib, N-{3-chloro-4-[(3-fluorobenzyl)oxy]phenyl}-6-[5-({[2-(methylsulfonyl)ethyl]amino}methyl)-2-furyl]-4-quinazolinamine, reference compound] | 34100 ng·h/mL | 160 ng/g | 200 ng/g | 190 ng/g | 7080 ng/g | largely disappeared | largely disappeared | 6690 ± 1310 ng/mL | 2140 ± 220 ng/mL | 630 ng/mL | 5.8 ng/g | 4 h | 11.8 ng/g | 15.7 ng/g | 10 ng/g | 17 ng/g | 0.4 ng/g | 4110 ng·h/mL | 985 ng/mL | 0.5 h | Plasma exposure (AUC0–24 h) ([3]; effective dose 1250 mg/day): 27300 ng·h/mL; concentration at 0.5 h [8, 12]: 984 ng/mL; concentration at 1 h [8, 12]: 763 ng/mL; concentration at 2 h [8, 12]: 413 ng/mL; concentration at 4 h [8, 12]: 461 ng/mL; concentration at 8 h [8, 12]: 99.6 ng/mL; concentration at 24 h [8, 12]: 5.4 ng/mL; AUC0–24 h, brain [8]: 144 ng·h/g; Cmax, brain [8]: 17 ng/g; concentration at 4 h [9]: 9360 ± 1780 ng/mL
